# How the values were obtained:
# [1] = test system: human embryonic stem cells (hESCs); assay: Short-term proliferation assay (growth rate) of hESCs in defined hESC media; assay type: cell-based; conditions: feeder-free
# Procedure: (b) Short-term proliferation assays—assessing cell number. The growth rate of hESCs maintained under the feeder-free condition in the defined hESC media containing 0, 4, 10, 20, 30, or 50 ng/ml bFGF were determined and compared to that of hESCs maintained on laminin/collagen-coated plates in the MEF-conditioned media (MEF-CM) containing 10 ng/ml bFGF (see, for example, Xu, C., et al., Nat. Biotechnol. 19, 971-974 (2001)).
# To further assess the effect of bFGF on hESC undifferentiated growth, short-term proliferation assays of hESCs maintained under the feeder-free condition in the defined hESC media containing 0, 4, 10, 20, 30, or 50 ng/ml bFGF were performed. The growth rate (FIG. 1b) and the percentage of undifferentiated colonies (FIG. 1c) in response to bFGF doses were compared to those of hESCs maintained in MEF-conditioned media (MEF-CM) (the latter also actually “spiked” with an additional 10 ng/ml bFGF). […] To further affirm the role of bFGF on hESC undifferentiated growth, hESCs carrying a reporter gene (enhanced green fluorescence protein [EGFP]) under control of Oct-4 promoter were generated (via lentiviral-mediated transduction).
# [2] = test system: human embryonic stem cells (hESCs); assay: bFGF dose-response, maintenance of undifferentiated hESCs under feeder-free condition on laminin/collagen-coated plates; assay type: cell-based
# Procedure: (c) bFGF dose-response assays—assessing maintenance of the undifferentiated state.
# To discover the minimal essential conditions needed to support the long-term growth of undifferentiated hESCs, morphological analysis was used to assess the developmental stage of hESCs at different times. For these analyses hESCs were grown in a 6- or 12-well plate to maturation (day 6 or 7 after seeding) before being fixed and visualized under a phase contrast microscope. Cellular immunofluorescence was also employed to assess the state of differentiation of hESCs. To perform these studies, hESCs were grown to maturation (day 6 or 7 after seeding) in a 12- or 24-well plate with a round cover slide in the bottom of each well. The cells were then fixed with 4% paraformaldehyde and blocked in PBS buffer containing 0.2% Triton X-100 and 2% BSA. Next, the cells were incubated with a primary antibody (Oct-4, SSEA-1, SSEA-3, SSEA-4, Tra-1-60, Tra-1-81, alkaline phosphatase, Myc, Map-2, Nkx2.5, bFGF (Santa Cruz Biotechnology, Inc.; Santa Cruz, Calif., world wide web: scbt.com) nestin, tyrosine hydroxylase (Chemicon International, Temecula, Calif., world wide web: chemicon.com), beta-tubulin (Sigma), p300, Tip60, or acetylated H4 (K5, 8, 12, 16) (Upstate Biotechnology, Lake Placid, N.Y., world wide web: upstate.com) in wash buffer (0.1% Triton X-100 in PBS) at 4° C. overnight, and then with secondary antibody (Molecular Probe; Eugene, Oreg., world wide web: probes.com) in wash buffer at room temperature for 45 minutes. After further staining with DAPI, cells were mounted onto a microscope slide and visualized under an immunofluorescence and deconvolution microscope. The state of differentiation of hESC was further assessed by generating (via lentiviral-mediated transduction) hESCs carrying a reporter gene (enhanced green fluorescence protein (EGFP)) under control of the Oct-4 promoter. Using these transfected hESCs (carrying Oct-4 driven EGFP), the undifferentiated state of hESCs can be visualized by green fluorescence (indicating Oct-4 expression).
# The mechanism by which MEF-conditioned media exerts these effects is unknown, and it could involve the presence of growth factors, removal of toxic factors from the medium, or both. Based on the discovery that bFGF (at relatively high concentrations) promotes undifferentiated growth of hESCs on HFFs, it was decided to test whether bFGF promotes undifferentiated growth of hESCs on matrix proteins in the absence of feeder cells. Gelatin pre-coated plates were incubated with a commercially-available combination of laminin and collagen known as Matrigel (Growth factor reduced, Becton Dickinson) [diluted 1:30 in cold DMEM/F-12] at 4° C. overnight. The growth of hESCs on laminin/collagen-coated plates in the defined hESC media containing 20 ng/ml bFGF was examined. […]
# To further assess the effect of bFGF on hESC undifferentiated growth, short-term proliferation assays of hESCs maintained under the feeder-free condition in the defined hESC media containing 0, 4, 10, 20, 30, or 50 ng/ml bFGF were performed. […] To further affirm the role of bFGF on hESC undifferentiated growth, hESCs carrying a reporter gene (enhanced green fluorescence protein [EGFP]) under control of Oct-4 promoter were generated (via lentiviral-mediated transduction).
# [3] = test system: acetylated histone H3 and H4, Myc, Tip60 HAT, p300 HAT; assay: Chromatin state immunofluorescence (acetylated H3/H4, Myc, Tip60, p300) in hESCs; assay type: cell-based, human; conditions: named factor omitted from the media
# Text: (c) Presence of both bFGF and insulin is essential for maintenance of an acetylated transcriptionally active chromatin state in undifferentiated hESCs. When either bFGF or insulin is omitted from the media, the differentiated hESC colonies express the differentiation-associated cell surface marker SSEA-1 [B, C] […] (green), Myc [E, F] (red), and histone acetyltransferase (HAT) Tip60 [I, K] (green) and p300 [J, K] […] All cells are indicated by DAPI staining of their nuclei (blue).
# To discover the minimal essential conditions needed to support the long-term growth of undifferentiated hESCs, morphological analysis was used to assess the developmental stage of hESCs at different times. For these analyses hESCs were grown in a 6- or 12-well plate to maturation (day 6 or 7 after seeding) before being fixed and visualized under a phase contrast microscope. Cellular immunofluorescence was also employed to assess the state of differentiation of hESCs. […] The state of differentiation of hESC was further assessed by generating (via lentiviral-mediated transduction) hESCs carrying a reporter gene (enhanced green fluorescence protein (EGFP)) under control of the Oct-4 promoter. Using these transfected hESCs (carrying Oct-4 driven EGFP), the undifferentiated state of hESCs can be visualized by green fluorescence (indicating Oct-4 expression). […]
substance,measurement,setting,value
"bFGF: basic fibroblast growth factor, growth factor added to the defined hESC media",growth rate of hESCs,"[1]; bFGF 10 to 50 ng/ml, compared with MEF-CM",growth rate comparable to that maintained in MEF-CM
same,growth of hESCs,"[1]; low concentration of bFGF (4 ng/ml), defined media",significantly slow growth
same,hESC colonies with completely differentiated morphology that ceased expressing Oct-4,"[2]; absence of bFGF, laminin/collagen, first passage",approximately 80%
same,percentage of undifferentiated hESC colonies at higher dosages,"[2]; bFGF 30 and 50 ng/ml versus 20 ng/ml, 7 days",slightly decreased percentages of undifferentiated hESC colonies
same,"hESC colonies highly compact and undifferentiated (morphology, Oct-4, SSEA-4, Tra-1-60, Tra-1-81 expression)","[2]; defined hESC media containing 20 ng/ml bFGF, laminin/collagen-coated plates, each passage, day 7",Over 80%
same,differentiation rate of hESCs,"[2]; low concentration of bFGF (4 ng/ml), feeder-free, defined media",high differentiation rates
same,"bFGF concentration maintaining the optimal proportion of undifferentiated hESCs, comparable to MEF-CM","[2]; tested 0, 4, 10, 20, 30, 50 ng/ml, 7 days",20 ng/mL
same,"immunoreactivity to acetylated H3 and H4, Myc, Tip60 HAT, nuclear focal localization of p300 HAT",[3],undetectable or weak immunoreactivity

# — patent US20080241919A1, “Defined media for pluripotent stem cell culture” (The Burnham Institute of Medical Research, priority 2003, published 2008)
